Legend:
GLP over G9a = conditions: biochemical assays; cited from earlier work
human recombinant G9a [1] = target: T1, human recombinant G9a (Homo sapiens, UniProt Q96KQ7); test: G9a inhibition, peptide-based AlphaLISA assay; assay type: biochemical; conditions: for fold reduction of G9a inhibitory activity compared to 12a: relative to 12a, from Table 1 IC50; for Hill slope of the concentration–response inhibition curve of G9a: AlphaLISA, four-parameter fit
T1 sequence (Q96KQ7 1-1210): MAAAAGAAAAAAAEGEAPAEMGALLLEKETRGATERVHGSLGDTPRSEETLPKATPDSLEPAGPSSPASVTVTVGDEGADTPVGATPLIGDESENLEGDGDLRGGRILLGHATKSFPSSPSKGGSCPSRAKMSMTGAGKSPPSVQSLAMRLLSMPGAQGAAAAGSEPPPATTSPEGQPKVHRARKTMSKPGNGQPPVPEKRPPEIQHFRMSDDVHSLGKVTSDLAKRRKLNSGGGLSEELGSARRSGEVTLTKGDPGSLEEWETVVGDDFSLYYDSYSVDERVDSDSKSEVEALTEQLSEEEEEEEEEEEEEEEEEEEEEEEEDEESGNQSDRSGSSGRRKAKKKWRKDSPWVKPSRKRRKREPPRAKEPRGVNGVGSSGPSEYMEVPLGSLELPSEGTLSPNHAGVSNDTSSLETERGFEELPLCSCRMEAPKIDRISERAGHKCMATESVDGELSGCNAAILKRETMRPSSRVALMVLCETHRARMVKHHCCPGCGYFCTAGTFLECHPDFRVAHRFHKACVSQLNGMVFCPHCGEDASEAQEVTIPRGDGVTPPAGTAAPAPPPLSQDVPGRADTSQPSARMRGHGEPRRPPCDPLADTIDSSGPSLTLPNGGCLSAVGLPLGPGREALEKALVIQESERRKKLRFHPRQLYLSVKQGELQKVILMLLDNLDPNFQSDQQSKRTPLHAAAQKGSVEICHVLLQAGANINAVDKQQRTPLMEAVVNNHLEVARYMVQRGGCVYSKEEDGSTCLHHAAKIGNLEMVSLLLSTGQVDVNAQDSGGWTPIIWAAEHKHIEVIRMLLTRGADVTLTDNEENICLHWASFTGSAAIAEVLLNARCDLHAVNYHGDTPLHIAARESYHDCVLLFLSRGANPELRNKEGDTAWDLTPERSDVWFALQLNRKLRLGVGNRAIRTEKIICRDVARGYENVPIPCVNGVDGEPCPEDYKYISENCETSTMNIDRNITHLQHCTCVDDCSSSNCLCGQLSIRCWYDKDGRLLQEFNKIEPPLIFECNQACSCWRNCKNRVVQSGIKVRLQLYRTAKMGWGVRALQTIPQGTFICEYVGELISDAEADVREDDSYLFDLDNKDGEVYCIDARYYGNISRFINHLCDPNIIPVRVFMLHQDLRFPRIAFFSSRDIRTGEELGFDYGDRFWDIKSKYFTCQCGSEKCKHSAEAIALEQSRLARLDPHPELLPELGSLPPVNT

[2] = system: lysine N-methyltransferase SUV39H1(H320R); conditions: up to a 10 μM concentration; cited from earlier work
[3] = system: protein arginine methyltransferase 1 (PRMT1); conditions: up to a 10 μM concentration; cited from earlier work
G9a [4] = target: T2, G9a (Homo sapiens, UniProt Q96KQ7); conditions: read-out: G9a IC50 (ECSD assay); ECSD assays; cited from earlier work
T2 sequence (Q96KQ7 913-1193 limits assumed): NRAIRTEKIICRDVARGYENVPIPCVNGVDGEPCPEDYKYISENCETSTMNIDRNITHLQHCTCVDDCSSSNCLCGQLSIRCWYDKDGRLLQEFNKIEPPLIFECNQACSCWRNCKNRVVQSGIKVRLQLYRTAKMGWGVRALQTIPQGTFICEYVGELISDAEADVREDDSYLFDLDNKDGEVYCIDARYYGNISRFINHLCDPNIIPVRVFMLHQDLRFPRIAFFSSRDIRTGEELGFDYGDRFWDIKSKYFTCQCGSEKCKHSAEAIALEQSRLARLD

G9a [5] = target: T2, G9a; conditions: read-out: Morrison Ki, G9a; cited from earlier work
[6] = Parallel artificial membrane permeability assay; assay type: in vitro ADME; conditions: PAMPA, pH 7.4
in vitro = conditions: PAMPA, pH 7.4
[7] = system: other lysine and arginine methyltransferases; conditions: up to a 10 μM concentration; cited from earlier work
[8] = system: H3K9me2 levels in U-343 cells; test: Western blot of H3K9me2 in histone extracts, U-343; assay type: cell-based, human; conditions: 0.5 and 5 μM, 48 and 72 h
human recombinant p300 = human recombinant p300 (Homo sapiens, UniProt Q09472); test: KAT3B/p300 inhibition, AlphaLISA assay; assay type: biochemical; conditions: tested at 10 and 25 μM
human recombinant G9a [9] = target: T1, human recombinant G9a; test: Mechanism of action kinetics, AlphaLISA G9a assay, Lineweaver-Burk plots; assay type: biochemical; conditions: fixed H3 peptide 100 nM, varying SAM
human recombinant PRMT3 = human recombinant PRMT3 (Homo sapiens, UniProt O60678); test: PRMT3 inhibition, AlphaLISA assay; assay type: biochemical; conditions: tested at 10 and 25 μM
[10] = target: full-length human recombinant DNMT3b (Homo sapiens, UniProt Q9UBC3); test: HotSpot DNMT activity assay; assay type: biochemical; conditions: lambda DNA substrate
MDA-MB-231 cells = test: MTT cell viability assay, MDA-MB-231; assay type: cell-based, human; conditions: up to 5 μM, even after 72 h, vs vehicle
G9a [11] = target: T2, G9a; test: Surface plasmon resonance; assay type: binding
[12] = system: H3K9me2 levels in MCF-7 cells; test: Western blot of H3K9me2 in histone extracts, MCF-7; assay type: cell-based, human; conditions: 0.5 and 5 μM, 48 and 72 h
human recombinant PRMT1 = human recombinant PRMT1 (Homo sapiens, UniProt Q99873); test: PRMT1 inhibition, AlphaLISA assay; assay type: biochemical; conditions: tested at 10 and 25 μM
[13] = Chemical stability in PBS, HPLC analysis; assay type: physicochemical; conditions: exposure to PBS over 72 h
U-343 cells = test: MTT cell viability assay, U-343; assay type: cell-based, human; conditions: up to 5 μM, even after 72 h, vs vehicle
MCF-7 cells = test: MTT cell viability assay, MCF-7; assay type: cell-based, human; conditions: 0.05–50 μM; 24, 48, 72 h
[14] = system: H3K9me2 levels in MDA-MB-231 cells; test: Western blot of H3K9me2 in histone extracts, MDA-MB-231; assay type: cell-based, human; conditions: 0.5 and 5 μM, 48 and 72 h
human recombinant KDM4A = target: T3, human recombinant KDM4A (Homo sapiens, UniProt O75164); test: KDM4A/JMJD2A inhibition, AlphaLISA assay; assay type: biochemical; conditions: tested at 10 and 25 μM
T3 sequence (O75164 1-1064): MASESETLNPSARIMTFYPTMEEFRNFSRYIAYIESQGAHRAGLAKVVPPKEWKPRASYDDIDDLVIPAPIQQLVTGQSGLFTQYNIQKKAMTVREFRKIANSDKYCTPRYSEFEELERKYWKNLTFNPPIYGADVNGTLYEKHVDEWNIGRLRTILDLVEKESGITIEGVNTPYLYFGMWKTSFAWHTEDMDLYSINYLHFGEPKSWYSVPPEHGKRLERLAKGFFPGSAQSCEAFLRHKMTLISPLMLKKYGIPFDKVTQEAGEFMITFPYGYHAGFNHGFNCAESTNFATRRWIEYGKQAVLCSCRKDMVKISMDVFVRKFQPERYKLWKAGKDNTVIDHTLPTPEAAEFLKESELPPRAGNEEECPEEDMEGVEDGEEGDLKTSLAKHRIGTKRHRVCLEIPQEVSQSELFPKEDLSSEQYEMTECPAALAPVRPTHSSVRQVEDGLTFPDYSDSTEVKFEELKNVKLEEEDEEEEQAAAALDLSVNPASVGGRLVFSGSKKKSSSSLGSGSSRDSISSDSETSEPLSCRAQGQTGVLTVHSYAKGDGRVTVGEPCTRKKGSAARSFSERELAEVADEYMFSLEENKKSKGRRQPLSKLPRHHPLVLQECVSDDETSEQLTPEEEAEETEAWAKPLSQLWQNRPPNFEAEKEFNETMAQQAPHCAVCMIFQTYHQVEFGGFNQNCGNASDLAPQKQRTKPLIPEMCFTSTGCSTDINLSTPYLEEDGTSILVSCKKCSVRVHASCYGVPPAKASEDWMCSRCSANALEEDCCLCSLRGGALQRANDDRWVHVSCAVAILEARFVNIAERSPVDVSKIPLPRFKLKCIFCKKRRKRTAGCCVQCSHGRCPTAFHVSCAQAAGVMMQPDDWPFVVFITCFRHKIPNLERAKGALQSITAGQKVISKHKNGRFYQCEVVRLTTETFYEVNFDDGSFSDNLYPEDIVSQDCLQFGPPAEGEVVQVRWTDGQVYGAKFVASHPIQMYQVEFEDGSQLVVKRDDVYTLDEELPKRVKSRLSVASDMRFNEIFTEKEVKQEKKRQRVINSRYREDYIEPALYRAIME

human DNMT3a = human DNMT3a (Homo sapiens, UniProt Q9Y6K1); test: HotSpot DNMT activity assay; assay type: biochemical; conditions: lambda DNA substrate
human DNMT3a, sequence (Q9Y6K1 2-912 limits assumed): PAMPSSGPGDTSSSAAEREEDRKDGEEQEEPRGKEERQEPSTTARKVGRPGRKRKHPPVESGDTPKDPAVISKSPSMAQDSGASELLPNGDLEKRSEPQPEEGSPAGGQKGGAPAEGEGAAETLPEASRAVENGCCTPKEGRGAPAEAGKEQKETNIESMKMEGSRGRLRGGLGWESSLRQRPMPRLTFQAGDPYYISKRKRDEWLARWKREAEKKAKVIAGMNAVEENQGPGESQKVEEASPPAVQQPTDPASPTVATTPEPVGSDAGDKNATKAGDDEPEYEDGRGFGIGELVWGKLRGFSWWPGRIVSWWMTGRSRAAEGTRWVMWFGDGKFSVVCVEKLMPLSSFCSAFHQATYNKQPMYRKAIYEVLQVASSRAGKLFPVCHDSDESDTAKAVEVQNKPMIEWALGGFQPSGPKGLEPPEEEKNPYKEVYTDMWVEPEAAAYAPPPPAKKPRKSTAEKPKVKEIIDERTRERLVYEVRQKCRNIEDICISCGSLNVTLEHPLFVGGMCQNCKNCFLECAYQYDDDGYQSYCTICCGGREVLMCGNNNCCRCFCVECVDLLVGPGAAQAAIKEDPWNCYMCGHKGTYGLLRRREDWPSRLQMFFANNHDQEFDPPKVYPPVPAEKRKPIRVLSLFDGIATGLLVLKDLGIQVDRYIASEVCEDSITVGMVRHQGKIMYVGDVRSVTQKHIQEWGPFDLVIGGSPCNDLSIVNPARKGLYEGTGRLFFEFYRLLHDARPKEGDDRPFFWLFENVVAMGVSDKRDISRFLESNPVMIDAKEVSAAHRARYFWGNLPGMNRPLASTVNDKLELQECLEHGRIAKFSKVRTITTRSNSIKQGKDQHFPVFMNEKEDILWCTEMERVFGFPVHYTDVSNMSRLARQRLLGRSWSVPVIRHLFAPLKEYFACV

human recombinant PRMT1, sequence (Q99873 whole entry): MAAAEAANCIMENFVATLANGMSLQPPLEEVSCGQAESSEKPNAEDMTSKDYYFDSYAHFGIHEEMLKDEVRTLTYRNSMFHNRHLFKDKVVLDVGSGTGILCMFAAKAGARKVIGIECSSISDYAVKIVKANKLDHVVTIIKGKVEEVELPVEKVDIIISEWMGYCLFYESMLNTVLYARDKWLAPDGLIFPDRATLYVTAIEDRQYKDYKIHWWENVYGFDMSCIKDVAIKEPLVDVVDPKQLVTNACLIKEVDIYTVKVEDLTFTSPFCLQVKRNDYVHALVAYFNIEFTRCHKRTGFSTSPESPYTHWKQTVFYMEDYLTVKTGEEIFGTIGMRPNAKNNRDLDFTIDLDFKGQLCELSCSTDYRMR
human recombinant p300, sequence (Q09472 whole entry): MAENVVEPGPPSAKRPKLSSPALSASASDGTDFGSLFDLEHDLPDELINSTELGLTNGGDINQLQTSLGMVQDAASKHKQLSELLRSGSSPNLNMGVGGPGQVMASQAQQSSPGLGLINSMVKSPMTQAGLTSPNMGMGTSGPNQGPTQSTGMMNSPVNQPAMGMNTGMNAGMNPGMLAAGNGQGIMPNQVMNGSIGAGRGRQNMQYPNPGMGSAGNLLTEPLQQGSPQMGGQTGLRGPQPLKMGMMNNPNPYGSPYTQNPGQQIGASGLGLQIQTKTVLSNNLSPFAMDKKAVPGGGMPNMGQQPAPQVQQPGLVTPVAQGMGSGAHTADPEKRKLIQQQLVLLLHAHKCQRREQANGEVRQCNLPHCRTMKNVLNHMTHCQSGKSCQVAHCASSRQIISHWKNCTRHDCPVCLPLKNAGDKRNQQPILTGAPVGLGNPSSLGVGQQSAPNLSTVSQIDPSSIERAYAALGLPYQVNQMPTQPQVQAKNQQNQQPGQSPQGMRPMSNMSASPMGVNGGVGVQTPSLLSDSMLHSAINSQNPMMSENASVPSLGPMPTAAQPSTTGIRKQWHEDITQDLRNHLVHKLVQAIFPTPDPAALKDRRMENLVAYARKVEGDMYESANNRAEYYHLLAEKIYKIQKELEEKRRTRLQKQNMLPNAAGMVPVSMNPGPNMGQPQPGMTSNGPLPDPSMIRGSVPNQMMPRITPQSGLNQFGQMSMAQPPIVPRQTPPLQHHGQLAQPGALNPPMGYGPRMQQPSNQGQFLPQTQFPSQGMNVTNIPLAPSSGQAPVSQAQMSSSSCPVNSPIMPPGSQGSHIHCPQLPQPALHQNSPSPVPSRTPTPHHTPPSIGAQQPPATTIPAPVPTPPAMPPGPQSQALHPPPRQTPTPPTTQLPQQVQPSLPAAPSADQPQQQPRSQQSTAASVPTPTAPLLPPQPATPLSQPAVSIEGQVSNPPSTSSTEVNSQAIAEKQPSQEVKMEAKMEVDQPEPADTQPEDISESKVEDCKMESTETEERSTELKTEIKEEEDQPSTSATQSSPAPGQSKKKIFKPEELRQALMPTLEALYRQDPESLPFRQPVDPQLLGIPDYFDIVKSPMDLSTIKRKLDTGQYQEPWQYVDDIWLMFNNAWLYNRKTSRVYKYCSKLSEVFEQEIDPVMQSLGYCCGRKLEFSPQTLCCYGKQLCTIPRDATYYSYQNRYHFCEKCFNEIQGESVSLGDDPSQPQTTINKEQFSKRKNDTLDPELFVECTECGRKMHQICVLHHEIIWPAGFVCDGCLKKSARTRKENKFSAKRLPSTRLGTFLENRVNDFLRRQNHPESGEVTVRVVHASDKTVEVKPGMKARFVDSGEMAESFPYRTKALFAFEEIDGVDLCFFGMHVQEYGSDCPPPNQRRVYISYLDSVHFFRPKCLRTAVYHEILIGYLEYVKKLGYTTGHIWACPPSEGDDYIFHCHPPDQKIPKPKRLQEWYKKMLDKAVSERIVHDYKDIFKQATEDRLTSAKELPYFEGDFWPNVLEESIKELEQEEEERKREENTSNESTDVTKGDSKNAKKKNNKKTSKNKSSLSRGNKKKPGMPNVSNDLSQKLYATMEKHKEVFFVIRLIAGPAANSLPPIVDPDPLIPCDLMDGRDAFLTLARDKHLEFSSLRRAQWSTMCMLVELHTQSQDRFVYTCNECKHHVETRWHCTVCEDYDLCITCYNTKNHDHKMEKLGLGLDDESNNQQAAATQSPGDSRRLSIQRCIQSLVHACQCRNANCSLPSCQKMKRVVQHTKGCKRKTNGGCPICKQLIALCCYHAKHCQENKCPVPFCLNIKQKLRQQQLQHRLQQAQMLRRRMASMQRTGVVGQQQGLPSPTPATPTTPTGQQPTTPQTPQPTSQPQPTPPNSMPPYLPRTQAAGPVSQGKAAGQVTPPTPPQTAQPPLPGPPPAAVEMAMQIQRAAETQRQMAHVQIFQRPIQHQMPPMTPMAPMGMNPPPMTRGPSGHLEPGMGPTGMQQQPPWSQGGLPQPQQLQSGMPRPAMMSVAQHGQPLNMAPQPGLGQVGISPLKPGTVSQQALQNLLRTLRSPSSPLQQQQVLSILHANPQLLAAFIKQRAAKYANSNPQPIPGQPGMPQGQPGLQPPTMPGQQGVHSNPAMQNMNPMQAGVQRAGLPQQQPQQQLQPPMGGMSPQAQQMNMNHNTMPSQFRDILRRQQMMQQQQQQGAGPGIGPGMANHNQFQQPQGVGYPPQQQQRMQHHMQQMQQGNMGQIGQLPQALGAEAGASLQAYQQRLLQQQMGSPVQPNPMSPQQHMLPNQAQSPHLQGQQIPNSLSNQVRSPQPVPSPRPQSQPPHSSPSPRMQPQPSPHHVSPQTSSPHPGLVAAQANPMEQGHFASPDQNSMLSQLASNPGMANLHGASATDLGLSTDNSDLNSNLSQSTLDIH
human recombinant PRMT3, sequence (O60678 whole entry): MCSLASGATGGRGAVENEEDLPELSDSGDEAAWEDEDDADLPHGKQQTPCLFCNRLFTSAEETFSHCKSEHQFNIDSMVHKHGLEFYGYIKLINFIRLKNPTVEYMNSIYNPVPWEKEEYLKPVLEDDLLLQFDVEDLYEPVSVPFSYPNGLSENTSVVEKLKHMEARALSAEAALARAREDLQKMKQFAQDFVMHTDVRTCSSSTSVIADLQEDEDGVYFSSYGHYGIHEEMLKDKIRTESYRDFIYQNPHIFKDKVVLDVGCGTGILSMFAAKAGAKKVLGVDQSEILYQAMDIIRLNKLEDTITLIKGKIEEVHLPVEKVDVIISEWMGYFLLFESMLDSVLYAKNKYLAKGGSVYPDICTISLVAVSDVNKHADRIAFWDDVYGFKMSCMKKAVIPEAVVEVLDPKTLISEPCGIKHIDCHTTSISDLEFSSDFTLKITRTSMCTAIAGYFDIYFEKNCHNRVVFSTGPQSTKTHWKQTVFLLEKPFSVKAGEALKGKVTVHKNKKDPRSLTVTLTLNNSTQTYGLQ

CCCCCCNc1nc(NC2CCN(C)CC2)c2cc(OC)c(OC)cc2n1 [compound 9]
selectivity for GLP over G9a (GLP over G9a): > 140 fold

COc1cc2c(cc1OCCCN1CCCC1)NC(c1ccccc1)CN=C2NC1CCN(C(C)C)CC1 (centres unmarked) [13b, N-(1-Isopropylpiperidin-4-yl)-7-methoxy-2-phenyl-8-(3-(pyrrolidin-1-yl)propoxy)-2,3-dihydro-1H-benzo[e][1,4]-diazepin-5-amine]
fold reduction of G9a inhibitory activity compared to 12a (human recombinant G9a [1]): 100 fold

COc1cc2c(cc1OCCCN1CCCC1)NC(C1CCCCC1)CN=C2NC1CCN(C(C)C)CC1 (centres unmarked) [13a, 2-Cydohexyl-N-(1-isopropylpiperidin-4-yl)-7-methoxy-8-(3-(pyrrolidin-1-yl)propoxy)-2,3-dihydro-1H-benzo[e][1,4]-diazepin-5-amine]
fold reduction of G9a inhibitory activity compared to 12a (human recombinant G9a [1]): approximately 50 fold

COc1cc2c(cc1OCCCN1CCCC1)N=C(C1CCCCC1)CC(NC1CCN(C(C)C)CC1)=N2 [compound 14, 4-Cyclohexyl-N-(1-isopropylpiperidin-4-yl)-8-methoxy-7-(3-(pyrrolidin-1-yl)propoxy)-3H-benzo[b][1,4]diazepin-2-amine]
fold reduction of G9a inhibitory activity compared to 12a (human recombinant G9a [1]): 130 fold

COc1cc2c(cc1OCCCN1CCCC1)N=C(c1ccccc1)CN=C2NC1CCN(C(C)C)CC1 [12b, N-(1-Isopropylpiperidin-4-yl)-7-methoxy-2-phenyl-8-(3-(pyrrolidin-1-yl)propoxy)-3H-benzo[e][1,4]diazepin-5-amine]
fold reduction of G9a inhibitory activity compared to 12a (human recombinant G9a [1]): approximately 50 fold

COc1cc2nc(N3CCCN(C)CC3)nc(NC3CCN(Cc4ccccc4)CC3)c2cc1OC [compound 3]
activity against SUV39H1(H320R) [2]: basically inactive | activity against PRMT1 [3]: basically inactive

COc1cc2c(NC3CCN(C)CC3)nc(N3CCCN(C)CC3)nc2cc1OCCOCCN(C)C [compound 5]
IC50 (G9a [4]): 9 nM | Ki (G9a [5]): 0.063 nM

COc1cc2c(NC3CCN(C(C)C)CC3)nc(C3CCCCC3)nc2cc1OCCCN1CCCC1 [compound 7]
Papp at 24 h, 0.2 mM [6]: 0.049 ×10⁻⁶ cm/s | Papp at 24 h, 0.2 mM (in vitro): 0.019 ×10⁻⁶ cm/s | activity against other lysine and arginine methyltransferases [7]: inactive | Hill slope of the concentration–response inhibition curve of G9a (human recombinant G9a [1]): −1.3

COc1cc2c(cc1OCCCN1CCCC1)N=C(C1CCCCC1)CN=C2NC1CCN(C(C)C)CC1 [12a, 2-Cyclohexyl-N-(1-isopropylpiperidin-4-yl)-7-methoxy-8-(3-(pyrrolidin-1-yl)propoxy)-3H-benzo[e][1,4]diazepin-5-amine]
dimethylation of lysine H3K9 (H3K9me2), U-343 [8]: marked and both concentration- and time-dependent reduction | p300 inhibition (in words) (human recombinant p300): only poorly (or not at all) inhibited | α Ki, noncompetitive against SAM (human recombinant G9a [9]): 1.1 ± 0.2 nM | PRMT3 inhibition (in words) (human recombinant PRMT3): only poorly (or not at all) inhibited | DNMT3b inhibition (in words) [10]: inactive | cell toxicity (MTT), MDA-MB-231 (MDA-MB-231 cells): did not significantly reduce the number of metabolically active MDA-MB-231 or U-343 cells | Kd (G9a [11]): 63800 ± 950 nM | dimethylation of lysine H3K9 (H3K9me2), MCF-7 [12]: marked and both concentration- and time-dependent reduction | PRMT1 inhibition (in words) (human recombinant PRMT1): only poorly (or not at all) inhibited | Hill slope of the concentration–response inhibition curve of G9a (human recombinant G9a [1]): −2.7 | chemical stability (HPLC) [13]: did not decompose | cell toxicity (MTT), U-343 (U-343 cells): did not significantly reduce the number of metabolically active MDA-MB-231 or U-343 cells | cell toxicity (MTT), MCF-7 (MCF-7 cells): slight progressive increase of toxicity after 48 and 72 h | dimethylation of lysine H3K9 (H3K9me2), MDA-MB-231 [14]: marked and both concentration- and time-dependent reduction | JMJD2A inhibition (in words) (human recombinant KDM4A): only poorly (or not at all) inhibited | DNMT3a inhibition (in words) (human DNMT3a): inactive

Source: PMC7430049 (Journal of medicinal chemistry, 2019)
